Data as given in patent US9598364B2, “Indolyl or indolinyl hydroxamate compounds” (Taipei Medical University, priority 2010, dated 2017).
Like-named read-outs stand apart in the source and are kept apart here.

Legend:
Kasumi-1 = test: MTT cell viability assay, Kasumi-1; format: cell-based; details: Kasumi-1 leukemia cells, MTT, 48 or 72 hr; for CC50: read-out: LC50 (the source's name)
HL60 = test: cells
Experimental: (§1) 10^4 cells per well were seeded in 96-well culture plates with or without one of the test compounds. Various concentrations for the test compound were examined. […] The drug concentration resulting in total growth inhibition (TGI) is determined when Ti=Tz.
(§2) Cells were seeded in a 96-well flat-bottomed plate (2,500 to 3,000 cells per well). […] After being incubated at 37° C. for 2 h, the supernatant was removed and 200 μl/well of DMSO were added to dissolve the remaining MTT dye. The absorbance at 570 nm in each well was determined using a plate reader.

U937 = test: cells
Experimental: as §1, §2

K562 = test: cells
Experimental: as §1, §2

NB4 = test: cells
Experimental: as §1, §2

[1] = test system: MDA-MB-231 (estrogen-independent breast cancer); test: SRB assay, MDA-MB-231; format: cell-based; details: Homo sapiens, MDA-MB-231 cells, 48 h
Experimental: (§3) Human cancer A549 (non-small cell lung cancer), MDA-MB-231 (estrogen-independent breast cancer), Hep 3B (hepatoma), and HA22T (hepatoma) cells were seeded in 96-well plates in medium with 5% FBS. After 24 h, cells were fixed with 10% trichloroacetic acid (TCA) to represent cell population at the time of compound addition (T0). After additional incubation of DMSO or test compound for 48 h, cells were fixed with 10% TCA and SRB at 0.4% (w/v) in 1% acetic acid was added to stain cells. Unbound SRB was washed out by 1% acetic acid and SRB bound cells were solubilized with 10 mM Trizrna base. The absorbance was read at a wavelength of 515 nm. Using the absorbance measurements of time zero (T0), the control group (C), and the cell growth in the presence of the compound (Ti), the percentage growth was calculated at each of the compound concentrations levels.

Hep 3B (hepatoma) = test: SRB assay, Hep 3B; format: cell-based; details: Homo sapiens, Hep3B, Hep-3B cells, 48 h, read-out: Hep-3B liver GI50
Experimental: as §3

[2] = test system: A549 (non-small cell lung cancer); test: SRB assay, A549; format: cell-based, Human; details: Homo sapiens, A549 cells, 48 h
Experimental: as §3

PC-3 cells = test: Western blot analysis; format: cell-based; details: PC-3 cells, 1, 2.5, or 5 μM, 48 hours
Experimental: PC-3 cells treated with a test compound at 1, 2.5, or 5 μM in RPMI 1640 supplemented with 10% FBS for 48 hours. The cells were collected and sonicated. Protein concentrations in the resultant lysates were determined by a Bradford protein assay kit (Bio-Rad, Hercules, Calif.). The protein lysate, containing the same amount of proteins, were subjected to 10% SDS-polyacrylarnide gel (10%) electrophoresis. The proteins on the gel were then transferred onto an Immobilon-nitrocellulose membrane (Millipore, Bellerica, Mass.) in a semi-dry transfer cell. The transblotted membrane was washed twice with tris-buffered saline containing 0.1% Tween 20 (TBST). After being blocked with TBST containing 5% nonfat milk for 40 min, the membrane was incubated with a primary antibody specific to Acetyl-H3 (antibody obtained from Upstate Biotechnology, Inc., Lake Placid, N.Y.), H3 (Upstate Biotechnology), Acetyl α-tubulin (Sigma-Aldrich, St. Louis, Mo.), phospho-Akt (Serine 473) (Cell Signaling Technologies, Danvers, Mass.), Akt (Cell Signaling Technologies), Acetyl p53 (Santa Cruz Biotechnology, Santa Cruz, Calif.), p53 (Santa Cruz Biotechnology), p21 (Santa Cruz Biotechnology), or α-tubulin (Sigma-Aldrich, St. Louis, Mo.) (1:3000 dilution) in TBST/1% nonfat milk at 4 overnight. The membrane was washed three times with TBST for a total of 15 min and then incubated with a goat anti-rabbit or anti-mouse IgG antibody conjugated with horseradish (diluted 1:3000) for 1 h at room temperature. After being washed for at least three times with TBST, the signal intensity for each protein band was determined.

HA22T (hepatoma) = test: SRB assay, HA22T; format: cell-based, Human; details: Homo sapiens, HA22T cells, 48 h, read-out: HA22T liver GI50
Experimental: as §3

[3] = HL60 leukemia cells, MTT, 48 or 72 hr
[4] = U937 leukemia cells, MTT, 48 or 72 hr
[5] = K562 leukemia cells, MTT, 48 or 72 hr
[6] = NB4 leukemia cells, MTT, 48 or 72 hr

Structure (SMILES): Nc1ccn([C@@H]2O[C@H](CO)[C@@H](O)[C@@H]2O)c(=O)n1 [Ara-C, reference compound]
- GI50 (Kasumi-1): > 10000 nM
- TGI (Kasumi-1): >10000 nM
- CC50 (Kasumi-1): > 10000 nM
- GI50 (HL60; [3]): 445 nM
- TGI (HL60; [3]): 4344.3 nM
- GI50 (U937; [4]): 46.6 nM
- TGI (U937; [4]): 109.7 nM
- CC50 (U937; read-out: LC50, U937 leukemia cells, MTT, 48 or 72 hr): 665 nM
- GI50 (K562; [5]): > 10000 nM
- TGI (K562; [5]): >10000 nM
- CC50 (K562; read-out: LC50, K562 leukemia cells, MTT, 48 or 72 hr): > 10000 nM
- GI50 (NB4; [6]): 448 nM
- TGI (NB4; [6]): 2324.0 nM
- CC50 (NB4; read-out: LC50, NB4 leukemia cells, MTT, 48 or 72 hr): 7320 nM

Structure (SMILES): O=C(C=Cc1ccc2c(ccn2S(=O)(=O)c2ccccc2)c1)NO [Compound 3, 3-(1-Benzenesulfonyl-1H-indol-5-yl)-N-hydroxy-acrylamide]
- GI50 [1]: 480 nM
- GI50 (Kasumi-1; Homo sapiens): 96.6 nM
- CC50 (Kasumi-1; Homo sapiens): 694 nM
- TGI (Kasumi-1): 393.0 nM
- GI50 (Hep 3B (hepatoma)): 410 nM
- TGI (HL60; [3]): 535.8 nM
- GI50 (HL60; Homo sapiens, HL-60): 242 nM
- GI50 (U937; Homo sapiens, U-937): 162 nM
- CC50 (U937; Homo sapiens, U-937, read-out: LC50): 718 nM
- TGI (U937; [4]): 440.0 nM
- GI50 (K562; Homo sapiens, K562): 9020 nM
- CC50 (K562; Homo sapiens, K562, read-out: LC50): > 10000 nM
- TGI (K562; [5]): >10000 nM
- GI50 (NB4; Homo sapiens, NB-4): 223 nM
- CC50 (NB4; Homo sapiens, NB-4, read-out: LC50): 779 nM
- TGI (NB4; [6]): 500.9 nM
- GI50 [2]: 960 nM
- H3 expression (PC-3 cells): upregulated
- histone deacetylation (PC-3 cells): inhibited
- tubulin acetylation (PC-3 cells): upregulated
- GI50 (HA22T (hepatoma)): 1150 nM

Structure (SMILES): COc1ccc(S(=O)(=O)n2ccc3cc(C=CC(=O)NO)ccc32)cc1 [Compound 4, N-hydroxy-3-[1-(4-methoxy-benzenesulfonyl)-1H-indol-5-yl]-acrylamide]
- GI50 [1]: 750 nM
- GI50 (Hep 3B (hepatoma)): 550 nM
- GI50 [2]: 1310 nM
- GI50 (HA22T (hepatoma)): 1560 nM

Structure (SMILES): O=C(C=Cc1ccc2c(ccn2S(=O)(=O)c2ccc(F)cc2)c1)NO [Compound 5, 3-[1-(4-fluoro-benzenesulfonyl)-1H-indol-5-yl]-N-hydroxy-acrylamide]
- GI50 [1]: 660 nM
- GI50 (Hep 3B (hepatoma)): 640 nM
- GI50 [2]: 1590 nM
- GI50 (HA22T (hepatoma)): 2300 nM

Structure (SMILES): O=C(C=Cc1ccc2c(ccn2S(=O)(=O)c2ccc([N+](=O)[O-])cc2)c1)NO [Compound 6, N-hydroxy-3-[1-(4-nitro-benzenesulfonyl)-1H-indol-5-yl]-acrylamide]
- GI50 [1]: 750 nM
- GI50 (Hep 3B (hepatoma)): 560 nM
- GI50 [2]: 2120 nM
- GI50 (HA22T (hepatoma)): 1980 nM

Structure (SMILES): Nc1ccc(S(=O)(=O)n2ccc3cc(C=CC(=O)NO)ccc32)cc1 [Compound 7, 3-[1-(4-Amino-benzenesulfonyl)-1H-indol-5-yl]-N-hydroxy-acrylamide]
- GI50 [1]: > 10000 nM
- GI50 (Hep 3B (hepatoma)): > 10000 nM
- GI50 [2]: > 10000 nM
- GI50 (HA22T (hepatoma)): > 10000 nM

Structure (SMILES): COc1ccc(S(=O)(=O)n2ccc3cc(C=CC(=O)NO)ccc32)cc1OC [Compound 8, 3-[1-(3,4-dimethoxy-benzenesulfonyl)-1H-indol-5-yl]-N-hydroxy-acrylamide]
- GI50 [1]: 370 nM
- GI50 (Hep 3B (hepatoma)): 360 nM
- GI50 [2]: 930 nM
- GI50 (HA22T (hepatoma)): 930 nM
